Assay results: PubChem BioAssay (NCI)
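1) Cells in 96-well plates. 2) Compound, 48 h, 5 concentrations. 3) Linear interpolation between surrounding doses. 4) Unreached endpoint = highest concentration. Definition used: TGI = concentration required for complete inhibition of growth.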

Key:
Experiment in all cases: NCI anticancer screen, dose series, 48 h
EKVX NSCLC = test system: EKVX NSCLC
IGROV1 ovarian = test system: IGROV1 ovarian
NCI-H460 lung = test system: NCI-H460 lung
A549 NSCLC = test system: A549 NSCLC
SF-539 CNS = test system: SF-539 CNS
TK-10 renal = test system: TK-10 renal
HT29 colon = test system: HT29 colon
DU-145 prostate = test system: DU-145 prostate
HCT-116 colon = test system: HCT-116 colon
MDA-MB-231 breast = test system: MDA-MB-231 breast
786-0 renal = test system: 786-0 renal
SN12C renal = test system: SN12C renal
K-562 leukemia = test system: K-562 leukemia
CAKI-1 renal = test system: CAKI-1 renal
LOX IMVI melanoma = test system: LOX IMVI melanoma

Row | SMILES | TGI (EKVX NSCLC) [µM] | TGI (IGROV1 ovarian) [µM] | TGI (NCI-H460 lung) [µM] | TGI (A549 NSCLC) [µM] | TGI (SF-539 CNS) [µM] | TGI (TK-10 renal) [µM] | TGI (HT29 colon) [µM] | TGI (DU-145 prostate) [µM] | TGI (HCT-116 colon) [µM] | TGI (MDA-MB-231 breast) [µM] | TGI (786-0 renal) [µM] | TGI (SN12C renal) [µM] | TGI (K-562 leukemia) [µM] | TGI (CAKI-1 renal) [µM] | TGI (LOX IMVI melanoma) [µM]
1 | COC1OC(C(=O)O)C2OC(C)(C)OC12 (centres undefined) | > 100 | > 100 | > 100 | > 100 | > 100 | > 100 | > 100 | > 100 | > 100 | > 100 | > 100 | > 100 | > 100 | > 100 | > 100
2 | CSc1nc(C)c2c(n1)N(c1ccc(Cl)cc1)CC2 | > 100 | > 100 | > 100 | > 100 | > 100 | > 100 | > 100 | > 100 | > 100 | > 100 | > 100 | > 100 | > 100 | > 100 | > 100
3 | NC(N)=NCCCC(NC(=O)c1c2ccccc2nc2ccccc12)C(=O)O (centres undefined) | > 100 | > 100 | > 100 | > 100 | > 100 | > 100 | > 100 | > 100 | > 100 | > 100 | > 100 | > 100 | > 100 | > 100 | > 100
4 | Cc1ccc2nc(C(=O)O)c(=O)[nH]c2c1 | > 100 | > 100 | > 100 | > 100 | > 100 | > 100 | > 100 | > 100 | > 100 | > 100 | > 100 | > 100 | > 100 | > 100 | > 100
5 | Cc1ccc(-n2cc(-c3ccc(Cl)cc3)c3c(=N)n(N)cnc32)cc1 | 29.9 | 24.5 | 22.2 | 29 | 27 | 28.7 | 20.6 | 34.5 | 20.3 | 25.3 | 24.4 | 29.9 | 47.6 | 34.3 | 29.8
6 | CC[C@@]12CCC(=S)N(CCSc3ccccc3)[C@@H]1c1c(n(S(=O)(=O)c3ccc(OC)cc3)c3ccccc13)CC2 | > 100 | > 100 | > 100 | > 100 | > 100 | > 100 | > 100 | > 100 | > 100 | > 100 | > 100 | > 100 | > 100 | > 100 | > 100
7 | CCc1cc2c(c3c1CCCC3=O)CC1(C2)Cc2cc(CC)c3c(c2C1)C(=O)CCC3 | > 100 | > 100 | > 100 | > 100 | > 100 | > 100 | > 100 | > 100 | > 100 | > 100 | > 100 | > 100 | > 100 | > 100 | > 100
8 | Cc1cc(C)nc(NS(=O)(=O)c2ccc(Nc3c4ccccc4nc4ccc(C(=O)Nc5ccc(S(=O)(=O)N=C(N)N)cc5)cc34)cc2)n1 | > 100 | > 100 | > 100 | > 100 | > 100 | > 100 | > 100 | > 100 | > 100 | > 100 | 53 | > 100 | 62.3 | > 100 | 34.4
9 | C=CCN1C(=O)CC(=O)N(NC2=NNC3(C(=O)N2)c2ccccc2-c2ccccc23)C1=S | > 100 | > 100 | > 100 | > 100 | > 100 | > 100 | > 100 | > 100 | > 100 | > 100 | > 100 | > 100 | > 100 | > 100 | > 100
10 | COC(=O)c1ccccc1C1CN=NC12Cc1c(C)ccc(C)c1C2=O (centres undefined) | > 100 | > 100 | > 100 | > 100 | > 100 | > 100 | > 100 | > 100 | > 100 | > 100 | > 100 | > 100 | > 100 | > 100 | > 100
11 | O=C1c2ccccc2C(=O)c2sc(Nc3cc(Cl)ccc3Cl)nc21 | 26.7 | 24.3 | 21.5 | 42.2 | 13.4 | 29.4 | 36.1 | 24.6 | 13.7 | 5.56 | 22.6 | 3.17 | > 31.8 | 11.7 | 5.78
12 | CC(C)=CCc1c2c(c(O)c3c(=O)c4c(oc13)-c1ccc(O)cc1OC4C=C(C)C)C=CC(C)(C)O2 (centres undefined) | 30.3 | 27.8 | 30.4 | 24.6 | 32.8 | 28.5 | 28.9 | 27.5 | 21 | 28 | 23.9 | 17 | 25.9 | 34.4 | 23.8
13 | c1cc2c(cc1[C@@H]1OC[C@@H]3[C@H]1CO[C@H]3c1ccc3c(c1)OCO3)OCO2 | 83.6 | > 100 | > 100 | > 100 | > 100 | 93.8 | > 100 | > 100 | > 100 | > 100 | > 100 | > 100 | > 100 | > 100 | > 100
14 | CC[C@]1(Cc2ccc(OC)c(OC)c2)C=[N+]([O-])O[C@H](OC2CCCC2(c2ccccc2)c2ccccc2)[C@@H]1OC(=O)C(C)(C)C (some centres undefined) | 22.3 | 9 | 6.92 | > 36.6 |  | > 25.4 | 4.49 | 4.45 | 4.58 | > 33 | 5.31 | > 22.1 | > 100 | > 100 | 4.18
15 | COc1ccc(/C(CC2OC(=O)c3ccccc32)=N\NC(N)=O)cc1 (centres undefined) | > 100 | > 100 | > 100 | > 100 | > 100 | > 100 | > 100 | > 100 | > 100 | > 100 | > 100 | > 100 | > 100 | > 100 | > 100
